Molecular target: IDH2 R140Q (Homo sapiens (Human), UniProt P48735, R140Q)
Experiment: IDH2 R140Q enzymatic cofactor depletion assay (diaphorase/resazurin)
Format: biochemical
Conditions: IDH2 R140Q enzyme, one hour preincubation with compound, one hour reaction; read-out: Enz R140Q
Description: The reaction was terminated by the addition of a second enzyme, diaphorase, and a corresponding substrate, resazurin. Diaphorase reduces resazurin to the highly fluorescent resorufin with the concomitant oxidation of NADPH to NADP, both halting the IDH2 reaction by depleting the available cofactor pool and facilitating quantitation of the amount of cofactor remaining after a specific time period through quantitative production of an easily detected fluorophore.
The compound was then incubated for one hour at room temperature with the enzyme; before starting the IDH2 reaction with the addition of 10 μl of substrate mix containing 50 μM NADPH and 6.3 mM α-KG in the buffer described above. After a further one hour of incubation at room temperature, the reaction was halted and the remaining NADPH measured through conversion of resazurin to resorufin by the addition of 25 μl Stop Mix (36 μg/ml diaphorase enzyme and 60 μM resazurin; in buffer). After one minute of incubation the plate was read on a plate reader at Ex544/Em590.

IDH2 R140Q, sequence (P48735 40-452 R140Q): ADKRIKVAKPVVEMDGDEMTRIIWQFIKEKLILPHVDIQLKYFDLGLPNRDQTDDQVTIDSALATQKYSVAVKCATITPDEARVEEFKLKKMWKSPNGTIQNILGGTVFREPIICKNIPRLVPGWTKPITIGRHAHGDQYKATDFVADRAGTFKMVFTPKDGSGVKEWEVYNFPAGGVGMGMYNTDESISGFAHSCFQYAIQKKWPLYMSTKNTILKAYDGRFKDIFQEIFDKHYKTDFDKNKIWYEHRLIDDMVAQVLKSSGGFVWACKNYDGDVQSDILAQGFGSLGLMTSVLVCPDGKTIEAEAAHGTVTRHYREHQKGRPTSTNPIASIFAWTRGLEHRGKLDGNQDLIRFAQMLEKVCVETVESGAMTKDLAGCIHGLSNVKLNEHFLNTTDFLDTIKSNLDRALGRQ

Row | Compound | IC50
1 | N#CC1(NS(=O)(=O)c2cnc(OCC3CC3)c(NC(=O)Nc3cccc(C(F)(F)F)c3)c2)CC1 [Compound 200, N-(1-cyanocyclopropyl)-6-(cyclopropylmethoxy)-5-(3-(3-(trifluoromethyl)phenyl)ureido)pyridine-3-sulfonamide] | 1 to 10 µM
2 | O=C(Nc1cccc(C(F)(F)F)c1)Nc1cc(S(=O)(=O)NC2COC2)ccc1-c1ccccc1 [Compound 45, N-(oxetan-3-yl)-2-(3-(3-(trifluoromethyl)phenyl)ureido)-[1,1′-biphenyl]-4-sulfonamide] | < 0.1 µM
3 | CC(C)(C)NS(=O)(=O)c1ccc(-c2ccsc2)c(NC(=O)Nc2cccc(C(F)(F)F)c2)c1 [Compound 118, N-(tert-butyl)-4-(thiophen-3-yl)-3-(3-(3-(trifluoromethyl)phenyl)ureido)benzenesulfonamide] | 0.1 to 1 µM
4 | O=C(Nc1cccc(C(F)(F)F)c1)Nc1cc(S(=O)(=O)Nc2ccccc2)ccc1-c1cccc(Cl)c1 [Compound 57] | 1 to 10 µM
5 | O=C(Nc1cccc(C(F)(F)F)c1)Nc1cc(S(=O)(=O)Nc2ccccc2)ccc1C1CCCCO1 (centres unmarked) [Compound 170, N-phenyl-4-(tetrahydro-2H-pyran-2-yl)-3-(3-(3-(trifluoromethyl)phenyl)ureido)benzenesulfonamide] | 0.1 to 1 µM
6 | N#CC1(NS(=O)(=O)c2ccc(-c3ccsc3)c(NC(=O)Nc3cccc(C(F)(F)F)c3)c2)CC1 [Compound 31, N-(1-cyanocyclopropyl)-4-(thiophen-3-yl)-3-(3-(3-(trifluoromethyl)phenyl)ureido)benzenesulfonamide] | < 0.1 µM
7 | O=C(Nc1cccc(C(F)(F)F)c1)Nc1cc(S(=O)(=O)NCC2CCOCC2)ccc1-c1ccsc1 [Compound 133, N-((tetrahydro-2H-pyran-4-yl)methyl)-4-(thiophen-3-yl)-3-(3-(3-(trifluoromethyl)phenyl)ureido)benzene sulfonamide] | 0.1 to 1 µM
8 | O=C(Nc1ccc(F)c(C(F)(F)F)c1)Nc1cc(S(=O)(=O)NCC(F)(F)F)ccc1-c1ccccc1 [Compound 69, 2-(3-(4-fluoro-3-(trifluoromethyl)phenyl)ureido)-N-(2,2,2-trifluoroethyl)-[1,1′-biphenyl]-4-sulfonamide] | 0.1 to 1 µM
9 | O=C(Nc1nc(C(F)(F)F)cs1)Nc1cc(S(=O)(=O)NCC(F)(F)F)ccc1-c1ccccc1 [Compound 103, N-(2,2,2-trifluoroethyl)-2-(3-(4-(trifluoromethyl)thiazol-2-yl)ureido)-[1,1′-biphenyl]-4-sulfonamide] | 0.1 to 1 µM
10 | O=C(Nc1cc(C(F)(F)F)ccn1)Nc1cc(S(=O)(=O)NCC(F)(F)F)ccc1C1CCCO1 (centres unmarked) [Compound 174, 4-(tetrahydrofuran-2-yl)-N-(2,2,2-trifluoroethyl)-3-(3-(4-(trifluoromethyl)pyridin-2-yl)ureido)benzene sulfonamide] | 1 to 10 µM
11 | CCC(C)NS(=O)(=O)c1ccc(-c2ccsc2)c(NC(=O)Nc2cccc(C(F)(F)F)c2)c1 (centres unmarked) [Compound 117, N-(sec-butyl)-4-(thiophen-3-yl)-3-(3-(3-(trifluoromethyl)phenyl)ureido)benzenesulfonamide] | 0.1 to 1 µM
12 | O=C(Nc1cccc(C(F)(F)F)c1)Nc1cc(S(=O)(=O)Nc2ccccc2)ccc1Nc1ccccc1 [Compound 340, N-phenyl-4-(phenylamino)-3-(3-(3-(trifluoromethyl)phenyl)ureido)benzenesulfonamide] | 1 to 10 µM
13 | O=C(Nc1ccc(F)cc1)Nc1cc(S(=O)(=O)Nc2ccccc2)ccc1-c1ccsc1 [Compound 18] | 1 to 10 µM
14 | O=C(Nc1cccc(C(F)(F)F)c1)Nc1cc(S(=O)(=O)NCC(F)(F)F)ccc1OCC1CCOC1 (centres unmarked) [Compound 184, 4-((tetrahydrofuran-3-yl)methoxy)-N-(2,2,2-trifluoroethyl)-3-(3-(3-(trifluoromethyl)phenyl)ureido)benzenesulfonamide] | 0.1 to 1 µM
15 | O=C(Nc1cccc(C(F)(F)F)c1)Nc1cc(S(=O)(=O)NCC(F)(F)F)cnc1NCC1CC1 [Compound 204, 6-((cyclopropylmethyl)amino)-N-(2,2,2-trifluoroethyl)-5-(3-(3-(trifluoromethyl)phenyl)ureido)pyridine-3-sulfonamide] | 1 to 10 µM
16 | O=C(Nc1cccc(C(F)(F)F)c1)Nc1cc(S(=O)(=O)N2CCOCC2)ccc1N1CCOCC1 [Compound 350] | 1 to 10 µM
17 | O=C(Nc1cccc(C(F)(F)F)c1)Nc1cc(S(=O)(=O)Nc2ccccn2)ccc1-c1ccsc1 [Compound 149] | 1 to 10 µM
18 | O=C(Nc1cccc(C(F)(F)F)c1)Nc1cc(S(=O)(=O)N2CCC2)ccc1-c1ccsc1 [Compound 140] | 1 to 10 µM

The next lines start with the values.

Row | IC50 | Compound
19 | 0.1 to 1 µM | O=C(Nc1cccc(C(F)(F)F)c1)Nc1cc(S(=O)(=O)NCC2CC2)ccc1-c1ccsc1 [Compound 127, N-(cyclopropylmethyl)-4-(thiophen-3-yl)-3-(3-(3-(trifluoromethyl)phenyl)ureido)benzenesulfonamide]
20 | 0.1 to 1 µM | O=C(Nc1cccc(Cl)c1)Nc1cc(S(=O)(=O)NCC(F)(F)F)ccc1C1CCCCO1 (centres unmarked) [Compound 168, 3-(3-(3-chlorophenyl)ureido)-4-(tetrahydro-2H-pyran-2-yl)-N-(2,2,2-trifluoroethyl)benzenesulfonamide]
21 | 1 to 10 µM | O=C(Nc1ccccn1)Nc1cc(S(=O)(=O)Nc2ccccc2)ccc1-c1ccsc1 [Compound 22]
22 | 0.1 to 1 µM | O=C(Nc1cccc(C(F)(F)F)c1)Nc1cc(S(=O)(=O)NCC2CCC2)ccc1-c1ccsc1 [Compound 128, N-(cyclobutylmethyl)-4-(thiophen-3-yl)-3-(3-(3-(trifluoromethyl)phenyl)ureido)benzenesulfonamide]
23 | 0.1 to 1 µM | O=C(Nc1cccc(C(F)(F)F)c1)Nc1cc(S(=O)(=O)NC2CCOCC2)ccc1-c1ccsc1 [Compound 132, N-(tetrahydro-2H-pyran-4-yl)-4-(thiophen-3-yl)-3-(3-(3-(trifluoromethyl)phenyl)ureido)benzene sulfonamide]
24 | 0.1 to 1 µM | O=C(Nc1cccc(C(F)(F)F)c1)Nc1cc(S(=O)(=O)NCC(F)(F)F)ccc1OCC1CCCO1 (centres unmarked) [Compound 176, 4-((tetrahydrofuran-2-yl)methoxy)-N-(2,2,2-trifluoroethyl)-3-(3-(3-(trifluoromethyl)phenyl)ureido)benzenesulfonamide]
25 | 0.1 to 1 µM | O=C(Nc1cccc(C(F)(F)F)c1)Nc1cc(S(=O)(=O)NC2CC2)ccc1-n1ccnc1 [Compound 345, N-cyclopropyl-4-(1H-imidazol-1-yl)-3-(3-(3-(trifluoromethyl)phenyl)ureido)benzenesulfonamide]
26 | 0.1 to 1 µM | O=C(Nc1cc(S(=O)(=O)Nc2ccccc2)ccc1-c1ccsc1)Nc1ccccc1C(F)(F)F [Compound 10, N-phenyl-4-(thiophen-3-yl)-3-(3-(2-(trifluoromethyl)phenyl)ureido)benzenesulfonamide]
27 | 0.1 to 1 µM | O=C(Nc1ccc(F)c(Cl)c1)Nc1cc(S(=O)(=O)NCC2CC2)ccc1C1=CCOCC1 [Compound 155, 3-(3-(3-chloro-4-fluorophenyl)ureido)-N-(cyclopropylmethyl)-4-(3,6-dihydro-2H-pyran-4-yl)benzene sulfonamide]
28 | 0.1 to 1 µM | O=C(Nc1ccc(F)c(C(F)(F)F)c1)Nc1cc(S(=O)(=O)NCC2CC2)ccc1C1CCCCO1 (centres unmarked) [Compound 164, N-(cyclopropylmethyl)-3-(3-(4-fluoro-3-(trifluoromethyl)phenyl)ureido)-4-(tetrahydro-2H-pyran-2-yl)benzenesulfonamide]
29 | < 0.1 µM | CCOc1ccc(S(=O)(=O)NCC(F)(F)F)cc1NC(=O)Nc1cccc(C(F)(F)F)c1 [Compound 177, 4-ethoxy-N-(2,2,2-trifluoroethyl)-3-(3-(3-(trifluoromethyl)phenyl)ureido)benzenesulfonamide]
30 | 1 to 10 µM | O=C(Nc1cc(C(F)(F)F)ccn1)Nc1cc(S(=O)(=O)NCC(F)(F)F)ccc1-c1cccnc1 [Compound 65]
31 | 1 to 10 µM | O=C(Nc1cccc(C(F)(F)F)c1)Nc1cc(S(=O)(=O)Nc2ccccc2)ccc1-c1cccnc1 [Compound 61]
32 | 0.1 to 1 µM | O=C(Nc1cccc(C(F)(F)F)c1)Nc1cc(S(=O)(=O)NCC(F)(F)F)ccc1-c1ccsc1 [Compound 130, 4-(thiophen-3-yl)-N-(2,2,2-trifluoroethyl)-3-(3-(3-(trifluoromethyl)phenyl)ureido)benzenesulfonamide]
33 | 1 to 10 µM | Cc1ccc(-c2ccc(S(=O)(=O)Nc3ccccc3)cc2NC(=O)Nc2cccc(C(F)(F)F)c2)cc1 [Compound 62]
34 | 0.1 to 1 µM | O=C(Nc1cccc(C(F)(F)F)c1)Nc1cc(S(=O)(=O)NC2CCC2)ccc1-c1ccsc1 [Compound 125, N-cyclobutyl-4-(thiophen-3-yl)-3-(3-(3-(trifluoromethyl)phenyl)ureido)benzenesulfonamide]
35 | 0.1 to 1 µM | Cc1coc(NC(=O)Nc2cc(S(=O)(=O)NCC(F)(F)F)ccc2-c2ccccc2)n1 [Compound 102, 2-(3-(4-methyloxazol-2-yl)ureido)-N-(2,2,2-trifluoroethyl)-[1,1′-biphenyl]-4-sulfonamide]
36 | 1 to 10 µM | O=C(Nc1cccc(C(F)(F)F)c1)Nc1cc(S(=O)(=O)Nc2ccccc2)ccc1-c1ccncc1 [Compound 60]
37 | 0.1 to 1 µM | O=C(Nc1ccc(F)c(C(F)(F)F)c1)Nc1cc(S(=O)(=O)NCC2CC2)ccc1C1=CCOCC1 [Compound 156, N-(cyclopropylmethyl)-4-(3,6-dihydro-2H-pyran-4-yl)-3-(3-(4-fluoro-3-(trifluoromethyl)phenyl)ureido)benzenesulfonamide]
38 | 1 to 10 µM | C[C@@H](NS(=O)(=O)c1ccc(-c2ccsc2)c(NC(=O)Nc2cccc(C(F)(F)F)c2)c1)c1ccccc1 [Compound 144]

Source: patent US10202339B2, “Therapeutic compounds and compositions” (AGIOS PHARMACEUTICALS, INC., priority 2012, dated 2019)
